# According to patent US9724337B2, “AG-205 for the treatment of breast cancer” (University of Kentucky Research Foundation, priority 2009, dated 2017):
# Assays:
# [1] = test system: HCC827; test: AG-205 viability assay in HCC827 cells; format: cell-based; settings: HCC827 cells, ΔE746-A750 EGFR
# Procedure: (§1) Tissue culture. MDA-MB-468 cells were a kind gift from Dr. Rina Plattner of the University of Kentucky and were maintained in medium consisting of Dulbecco's Modified Eagle Medium containing 10% serum supreme (Fisher) and antibiotics. Cells were grown at 37° C. in 5% CO2 in air. A549 and HCC827 lung cancer cells, as well as SK-Br-3 breast cancer cells were obtained from the ATCC (American Type Culture Collection) and were grown under the same conditions. The H1650 lung cancer cell line was a kind gift from Dr. Heinz Kohler of the University of Kentucky. The Pgrmc1 ligand AG-205 was purchased from Timtec, Inc. The EGFR inhibitor AG1478 was from Biomol, Inc. and was used at a concentration range of 0.8-40 μM.
# Proliferation, anchorage-independent growth and migration assays. For growth curves, cells were plated in 24 well dishes and grown in 10% serum-containing medium. […] Following the harvest of the final time point, the cells from each time point were counted using a Bright-line hemocytometer (Hausser Scientific).
# MTT viability assays were performed as described previously. […] The cells were then incubated with 0.5 mg/ml of 3-[4,5-dimethylthiazol-2-y]-2,5-diphenyltetrazolium bromide for 1.5 hours, at which time the media was removed, the precipitated crystals were dissolved in dimethyl sulfoxide, and the absorbance at 590 nm was measured using a Bio-Tek μQuant spectrophotometer.
# [2] = test system: EGFR; test: Western blot of EGFR levels in MDA-MB-468 cells; format: cell-based, human; settings: 12-50 μM dose
# Procedure: (§2) Panel A is a diagram indicating the positions of the siRNA molecules targeting Pgrmc1. Exons 1, 2 and 3 are indicated by “ex”. MDA-MB-468 cells were transfected with a control siRNA (siCON, lanes 1 and 3) or two separate siRNAs targeting Pgrmc1 (siPGR and siPGR2, lanes 2 and 4, respectively). In panels B-E and H-L, protein levels were analyzed by western blot for EGFR (B), phospho-tyrosine (C), Pgrmc1 (D) and ku70 (E), as a control for protein loading. Panels F—H show western blot analyses for (F) IGF-1R, (G) c-Kit and (H) tfR. In panels I and J, transcript levels were analyzed by reverse transcriptase-PCR for EGFR (I) and Pgrmc1 (J). The top band indicates the gene of interest, while actin primers were included in the same reaction as a control for cDNA loading. […] In panels K-L, MDA-MB-468 cells were treated with increasing doses of the Pgrmc1 ligand AG-205. Protein expression was analyzed by western blot for EGFR (K) and ku70 (L). Cells were treated with 0 (lanes 1), 2 (lanes 2), 10 (lanes 3) or 50 (lanes 4) μM AG-205 for 24 hours in serum-free medium. In panels M-N, A549 cells were treated with the same doses and analyzed for EGFR (M) and ku70 (N). […] Expression analyses were repeated at least in duplicate throughout.
# (§3) Immunological techniques. […]
# [3] = biological target: T1, Pgrmc1 (Homo sapiens, UniProt O00264); test: Western blot of Pgrmc1 levels in MDA-MB-468 cells; format: cell-based
# Procedure: (§4) Immunological techniques. Cells were extracted in RIPA buffer (50 mM Tris, pH 8.0, 1% Nonidet P-40, 150 mM NaCl, 0.5% sodium deoxycholate, 0.1% sodium dodecyl sulfate, 1 mM phenylmethylsulfonyl fluoride, 10 μg/ml of aprotinin, leupeptin and pepstatin) for standard western blotting. The antibodies used in the study were anti-caveolin-1 (N-20, Santa Cruz Biologicals, # sc-894), anti-EGFR (1005, Santa Cruz, # sc-03), anti-ku70 (A-9, Santa Cruz # sc-5309), anti-Met (C-12, Santa Cruz # sc-10), anti-PARP (H-250, Santa Cruz # sc-7150), anti-phosphotyrosine (P-Tyr-100, Cell Signaling), anti-Pgrmc1 (Novus Biologics) and anti-tubulin (Neomarkers). Some western blots for Pgrmc1 were performed with a polyclonal antibody called anti-PGR-UK1 which was raised in rabbits to an internal 10 amino acid peptide.
# [4] = test system: ku70; test: Western blot of ku70 levels in MDA-MB-468 cells; format: cell-based, human; settings: AG-205 treatment
# Procedure: as §2, §3
# [5] = test system: EGFR; test: Western blot of EGFR levels in A549 cells; format: cell-based, human
# Procedure: as §2, §3
# [6] = test system: focal adhesion kinase; test: Western blot of focal adhesion kinase in A549 cells; format: cell-based, human
# Procedure: as §4
# [7] = test system: Met receptor tyrosine kinase; test: Western blot of Met in A549 cells; format: cell-based, human
# Procedure: as §4
# [8] = test system: ku70; test: Western blot of ku70 in A549 cells; format: cell-based, human
# Procedure: as §2, §3
# [9] = test system: polyADP ribose polymerase (PARP) or caspase 3; test: Cleavage of PARP or caspase 3 in AG-205-treated cancer cells; format: cell-based, human; settings: AG-205-treated cells losing viability
# Procedure: as §4
# [10] = test system: NIH-3T3 cells; test: Growth inhibition of NIH-3T3 cells; format: cell-based; settings: wild-type EGFR
# [11] = test system: SK-Br-3 cells; test: Growth inhibition of SK-Br-3 cells; format: cell-based; settings: modest EGFR, extremely high HER2/neu
# Procedure: as §1
# [12] = biological target: Pgrmc1-heme complex (Homo sapiens, UniProt O00264); test: Spectroscopic scan of purified Pgrmc1 with AG-205; format: binding; settings: AG-205 added to purified Pgrmc1, spectroscopic scan
# Procedure: (A) Pgrmc1 (SEQ ID NO: 7) shares homology with AtMAPR2 (SEQ ID NO: 8) (underlined residues), which was the target for a screen for small molecule ligands. The putative heme-binding Tyr106 and Tyr112 are indicated with black boxes. (B) The molecular structure of AG-205 includes multiple aromatic components. (C) Spectroscopic scan of Pgrmc1 with vehicle control compared with vehicle plus 50 µM AG-205. The decrease in relative absorbance at 400 nm is consistent with an AG-205-induced change in the spectral properties of Pgrmc1-heme. The scan is representative of four separate scans using different Pgrmc1 protein preparations. The lower scan is a comparison of purified Pgrmc1 without and with the vehicle control (DMSO). Panels D (A549 cells) and E (MDA-MB-231 cells) are viability assays of cells maintained in 0.1% serum (solid line) or 10% serum (dashed line) and treated with increasing doses of AG-205. Percent viability was determined by cell counting, and “% viability” refers to the cell number relative to the untreated control.
# [13] = test system: A549 cells; test: FACS cell cycle analysis; format: cell-based, human; settings: triplicate FACS analysis, AG-205-treated cells
# Procedure: (A) Graph of triplicate FACS analysis. […] (B) Protein expression was analyzed by western blot for Pgrmc1 (top) and ku70 (bottom). Cells were treated with 0 (lanes 1), 2 (lanes 2), 10 (lanes 3) or 50 (lanes 4) μM AG-205 for 24 hours. […] (C-D) The panels show western blots of phosphorylated ERK1/2 (upper panels) and total ERK1/2 (lower panels) The lanes in panel C are A549/con (lane 1), A549/RNAi (lane 2), A549/LacZ (lane 3) and A549/PGR-hbd cells (lane 4) following 48 hours serum starvation. The cells infected with adenovirus were similar to those described in FIG. 3, panels C and D. In panel D, A549 cells were treated with vehicle (lane 1) or 20 μM AG-205 (lane 2) for 24 hours in serum-free media. (E) A549/con (solid line) or A549/RNAi (dashed line) cells were treated with increasing doses of AG-205 for 72 hours and viability was measured by counting, and “% viability” refers to the cell number relative to the untreated control. […] Percent viability was determined by cell counting, and “% viability” refers to the cell number relative to the untreated control. […]
# FACS was performed essentially as described previously (Mallory (2005)). […] FACS analysis was performed at the University of Kentucky flow cytometry facility, and the data were analyzed using Modfit software (Verity, Inc.).
# [14] = test system: EGFR; test: EGFR immunofluorescence localization in MDA-MB-468 cells; format: cell-based, human; settings: AG-205-treated cells after 24 hours, 20 μM
# Procedure: To test this model, EGFR was stained by immunofluorescence 24 hours after treatment with 20 μM AG-205 in MDA-MB-468 cells. In cells treated with the vehicle control, EGFR localized to the cell membrane. In contrast, EGFR localized to both the cell membrane and an intracellular ring which corresponds to the perinuclear region of the cell. Also, Pgrmc1 may control the uptake from the membrane to the perinuclear region.
# Immunofluorescence for EGFR was performed as described previously (Crudden et al., (2005) Tumour Biol 26:142-6). Cells were grown on chamber slides, washed and fixed with 3.7% formaldehyde. The cells were then permeabilized with 0.1% Triton X-100 in phosphate-buffered saline, blocked with 10% serum and incubated, in turn, with anti-EGFR 1005 and a Texas red-labeled anti-rabbit secondary antibody.
# [15] = test system: cancer cell lines from lung, breast, colon and prostate tissues; test: Toxicity to multiple cancer cell lines; format: cell-based; settings: most active when serum is absent
# [16] = biological target: T2, AtMAPR2 (Arabidopsis thaliana, UniProt Q9SK39); settings: in silico screen then binding assay, 2005; cited from earlier work
# T2 sequence (Q9SK39 1-100): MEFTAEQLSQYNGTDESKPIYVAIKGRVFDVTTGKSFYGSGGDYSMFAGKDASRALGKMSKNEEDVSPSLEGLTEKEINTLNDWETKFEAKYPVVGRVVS
# [17] = biological target: T1, Pgrmc1; test: Western blot of Pgrmc1 in A549 cells; format: cell-based; set-up: endogenous in cells; host or cells: A549 cells; settings: A549 cells, 2, 10 or 50 μM for 24 hours
# Procedure: (A) Graph of triplicate FACS analysis. […] (B) Protein expression was analyzed by western blot for Pgrmc1 (top) and ku70 (bottom). Cells were treated with 0 (lanes 1), 2 (lanes 2), 10 (lanes 3) or 50 (lanes 4) μM AG-205 for 24 hours. […] (C-D) The panels show western blots of phosphorylated ERK1/2 (upper panels) and total ERK1/2 (lower panels) The lanes in panel C are A549/con (lane 1), A549/RNAi (lane 2), A549/LacZ (lane 3) and A549/PGR-hbd cells (lane 4) following 48 hours serum starvation. The cells infected with adenovirus were similar to those described in FIG. 3, panels C and D. In panel D, A549 cells were treated with vehicle (lane 1) or 20 μM AG-205 (lane 2) for 24 hours in serum-free media. (E) A549/con (solid line) or A549/RNAi (dashed line) cells were treated with increasing doses of AG-205 for 72 hours and viability was measured by counting, and “% viability” refers to the cell number relative to the untreated control. (F) Cells expressing LacZ (solid line) or the Pgrmc1-hbd heme binding-deficient mutant (dashed line), were treated with increasing doses of AG-205. […] Percent viability was determined by cell counting, and “% viability” refers to the cell number relative to the untreated control. For each experiment, the results are representative of experiments performed at least in duplicate.
# as §3
# T1 sequence (O00264 whole entry): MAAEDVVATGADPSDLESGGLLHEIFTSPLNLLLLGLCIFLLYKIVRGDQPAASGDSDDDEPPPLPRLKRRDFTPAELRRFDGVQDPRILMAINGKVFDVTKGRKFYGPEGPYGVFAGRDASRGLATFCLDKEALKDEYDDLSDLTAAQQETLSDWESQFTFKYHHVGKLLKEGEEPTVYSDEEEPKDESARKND
# Sequence of Pgrmc1-heme complex (O00264 whole entry, one chain of several): as the sequence (O00264 whole entry) above
smiles,measurement,setting,value
Cc1ccc2c(c1)[C@H]1CN(C)CC[C@H]1N2C(=O)CSc1nnnn1-c1ccc(Cl)cc1 [AG-205],sensitivity to growth inhibition,[1],relatively insensitive
same,decrease in EGFR levels,[2],14 fold
same,increase in Pgrmc1 levels,[3]; 12 μM dose,4.8 fold
same,Pgrmc1 levels,[3]; doses of 25 and 50 μM,nearly undetectable levels
same,Ku70 levels,[4],not affected
same,dose with optimal EGFR de-stabilizing activity,[5],20 to 50 µM
same,EGFR stability,[5]; increasing doses,de-stabilized EGFR in a dose-dependent manner
same,stability of focal adhesion kinase,[6],little effect
same,stability of Met receptor tyrosine kinase,[7],little effect
same,ku70 levels,[8],unaffected
same,cleavage of PARP or caspase 3,[9],did not detect an increase
same,growth inhibition,[10],inhibited
same,sensitivity to growth inhibition,[11],relatively insensitive
same,change in absorbance of purified Pgrmc1,[12],shift in absorbance at approximately 400 nm
same,cell cycle distribution,[13],significant G1 arrest and accumulation of sub-G1 cells
same,EGFR localization,[14],EGFR localized to the perinuclear region of the cell
same,toxicity to cancer cell lines,[15],toxic to multiple cancer cell lines
same,binding to At Pgrmc1 (AtMAPR2),[16],bind to At Pgrmc1
same,Pgrmc1 expression,[17],increases Pgrmc1 expression
